For 13 molecules, TGI results are on record in PubChem BioAssay (NCI).

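Method: 48-hour compound exposure of cells in 96-well plates, five concentrations, linear interpolation of endpoints. TGI: concentration producing complete growth inhibition.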

Among the test systems are SF-295 CNS; SN12C renal; RPMI-8226 leukemia; UACC-62 melanoma; HCT-116 colon; ACHN renal; M14 melanoma; SK-MEL-2 melanoma; SF-539 CNS; SNB-19 CNS; BT-549 breast.
Assay in all cases: growth of human tumour cells (NCI), 48 h

Consider `CN(C)CCNC(=O)c1cccc2nc3c(C(=O)NCCN(C)C)cccc3nc12`, for which the TGI is 6.46 µM in the assay on SF-295 CNS; 5.58 µM with SN12C renal; over 23.6 µM in the assay on RPMI-8226 leukemia; 9.6 µM in the assay on UACC-62 melanoma; 13.4 µM in the assay with HCT-116 colon; 22.3 µM in the assay on ACHN renal. The TGI in the assay on M14 melanoma turned out to be 3.13 µM; in the assay with SK-MEL-2 melanoma, 4.16 µM; with SF-539 CNS it was 6.64 µM; with SNB-19 CNS it was 21.6 µM; in the assay on BT-549 breast, 15.9 µM.
For `S=c1nc(N/N=C/c2cccs2)c2cn[nH]c2[nH]1`, the TGI was 41.4 µM with SF-295 CNS; over 100 µM with SN12C renal; 62.6 µM in the assay on RPMI-8226 leukemia; over 100 µM in the assay on UACC-62 melanoma; over 100 µM with HCT-116 colon; over 100 µM in the assay on ACHN renal. The TGI with M14 melanoma, in the assay with SK-MEL-2 melanoma, in the assay on SF-539 CNS, in the assay with SNB-19 CNS and in the assay with BT-549 breast was over 100 µM each time.
Consider `Cc1cc2c(c(S(=O)(=O)c3ccccc3[N+](=O)[O-])c1)NCCC2`, for which the TGI in the assay with SF-295 CNS, with SN12C renal, in the assay on RPMI-8226 leukemia, in the assay on UACC-62 melanoma, in the assay with ACHN renal and in the assay on M14 melanoma was over 100 µM each time. Moreover, the TGI in the assay on SK-MEL-2 melanoma, in the assay on SF-539 CNS, in the assay with SNB-19 CNS and in the assay on BT-549 breast was over 100 µM in each case.
For `C=C(C)[C@H]1C2=CC(C)=C(O2)[C@@H](O)[C@H](C(=C)C)CCC2=C[C@H]1OC2=O`, the TGI in the assay with SF-295 CNS, in the assay on SN12C renal, in the assay on RPMI-8226 leukemia, in the assay with UACC-62 melanoma, in the assay with ACHN renal and with M14 melanoma was over 100 µM each time. The TGI in the assay with SK-MEL-2 melanoma, in the assay on SF-539 CNS, in the assay with SNB-19 CNS and in the assay with BT-549 breast was over 100 µM throughout.
In the case of `CCCOP(=O)(OCCC)OC(C(F)(F)F)C(F)(F)F`, the TGI with SN12C renal, in the assay on RPMI-8226 leukemia, with UACC-62 melanoma, in the assay with HCT-116 colon, in the assay with ACHN renal and in the assay on M14 melanoma was over 100 µM each time. Further, the TGI with SK-MEL-2 melanoma, with SF-539 CNS, in the assay with SNB-19 CNS and with BT-549 breast was over 100 µM throughout.
In the case of `CC(=O)O[C@H]1C(=O)[C@@]2(C)[C@H]([C@H](OC(=O)c3ccccc3)[C@]3(O)C[C@H](OC(=O)[C@H](O)[C@@H](NC(=O)c4ccccc4)c4cccc(N(C)C)c4)C(C)=C1C3(C)C)[C@]1(OC(C)=O)CO[C@@H]1C[C@@H]2O`, the TGI with SF-295 CNS is 1.14 µM; in the assay with SN12C renal, over 75 µM; in the assay with RPMI-8226 leukemia, 0.236 µM; in the assay on UACC-62 melanoma, over 50.2 µM; in the assay on HCT-116 colon, over 61.4 µM; in the assay with ACHN renal, over 16.4 µM. Further, the TGI with SK-MEL-2 melanoma was over 75 µM; in the assay on SF-539 CNS, 1.08 µM; with SNB-19 CNS, over 41.9 µM; in the assay on BT-549 breast, 3.51 µM.
With `Cc1cc(Nc2ccc(NS(C)(=O)=O)cc2)c2c(ccc3nccc32)[nH]1`, the TGI with SF-295 CNS was found to be 60.5 µM; in the assay with SN12C renal, 38.9 µM; in the assay with RPMI-8226 leukemia, 40.7 µM; with UACC-62 melanoma, 30.7 µM; in the assay with HCT-116 colon it was 37.9 µM; in the assay with ACHN renal, 60.8 µM. Moreover, the TGI is 31.1 µM with M14 melanoma, 30.5 µM in the assay with SK-MEL-2 melanoma, 48.8 µM in the assay with SNB-19 CNS and 43.9 µM in the assay with BT-549 breast.
For the molecule `COC(=O)c1cn(CC(O)CCl)nn1` (stereo unspecified), the TGI in the assay with SN12C renal, in the assay on RPMI-8226 leukemia, in the assay with ACHN renal, with M14 melanoma, in the assay with SK-MEL-2 melanoma and with SF-539 CNS was over 100 µM in each case. In addition, the TGI in the assay with SNB-19 CNS and with BT-549 breast was over 100 µM throughout.
Take `Cc1nc2ccc(F)cc2c(Cl)c1CCCl`: the TGI in the assay with SF-295 CNS is over 100 µM; in the assay with RPMI-8226 leukemia, over 100 µM; in the assay with UACC-62 melanoma, 94.6 µM; with HCT-116 colon it was 92.8 µM; with ACHN renal, over 100 µM; in the assay on SF-539 CNS, over 100 µM. Also, the TGI in the assay with SNB-19 CNS and in the assay on BT-549 breast was over 100 µM in each case.
Consider `COC(=O)C1=C(C(=O)OC)C(N(C)C)C(C(=O)OC)=C(C(=O)OC)S1`, for which the TGI in the assay with SF-295 CNS, in the assay on SN12C renal, with RPMI-8226 leukemia, in the assay with UACC-62 melanoma, in the assay on HCT-116 colon and in the assay with ACHN renal was over 100 µM in each case. For the same molecule, the TGI with M14 melanoma, in the assay with SK-MEL-2 melanoma, in the assay with SNB-19 CNS and with BT-549 breast was over 100 µM throughout.
`N/C(=N\Nc1ccc(Cl)cc1)c1cnccn1`: the TGI in the assay on SF-295 CNS, in the assay on SN12C renal, with RPMI-8226 leukemia, in the assay with UACC-62 melanoma, in the assay on HCT-116 colon and with ACHN renal was over 100 µM throughout. For the same molecule, the TGI in the assay with M14 melanoma, with SK-MEL-2 melanoma, in the assay on SNB-19 CNS and with BT-549 breast was over 100 µM throughout.
Consider `O=C(CN1CCCCC1)Nc1ccc2c(c1)C1Oc3ccccc3CC1CO2` (stereo unspecified), for which the TGI in the assay on SF-295 CNS was 36.4 µM; with SN12C renal it was over 100 µM; in the assay on RPMI-8226 leukemia, over 100 µM; with UACC-62 melanoma, 34.1 µM; in the assay with HCT-116 colon, 35.2 µM; in the assay on M14 melanoma it was 32.3 µM. Further, the TGI in the assay with SK-MEL-2 melanoma was 35.5 µM; in the assay with SF-539 CNS, 36 µM; with BT-549 breast, 44.6 µM.
In the case of `Cn1c2ccccc2c2cc(N3CCCC3)c3c(c21)C(=O)N(c1ccccc1)C3=O`, the TGI in the assay on SF-295 CNS, in the assay with SN12C renal, in the assay on RPMI-8226 leukemia, in the assay with UACC-62 melanoma, with HCT-116 colon and with ACHN renal was over 100 µM each time. For the same molecule, the TGI with M14 melanoma, in the assay on SNB-19 CNS and in the assay with BT-549 breast was over 100 µM in each case.
